Laboratory results as given in patent publication US12509447B2, “Small molecule compound” (Technoderma Medicines Pte Ltd, priority 2019, dated 2025).

What was measured:
Tyk2 = Tyk2 (Homo sapiens, UniProt P29597); assay: Inhibition of JAK kinase activity, EZ Reader microfluidic phosphorylation of peptide substrate: Tyk2; assay type: biochemical; conditions: Tyk2 kinase 1 nM; highest final concentration 10 μM, 1:3 serial dilution, 8 points, duplicates
Text: (§1) EZ Reader available from PerkinElmer can be used for detecting the phosphorylation of polypeptide substrates catalyzed by kinases. This device is based on microfluidic separation technology, and can directly detect fluorescence labeled substrates and products. The separation step is achieved in a microfluidic chip by controlling the pressure and electric field intensity. In a kinase experiment, the product conversion rate is generally controlled at 20-30%. This biological assay method is used for identifying the inhibitory effect of the compounds on JAK.
(§2) The compound powder was dissolved in DMSO, sealed and stored in a refrigerator at −20° C. The in-house compound Ref1 was used as a positive control for testing of JAK1, JAK2 and Tyk2, and Ref2 was used as a positive control for testing of JAK3.
(§3) • S2.1. 1M HEPES buffer: 0.5M HEPES free acid and 0.5M HEPES sodium salt are weighed, added into ultrapure water for dissolution, brought to a desired volume, filtered and stored in a refrigerator at 4° C. • S2.2. 40 mM ATP solution: dissolved in a 50 mM HEPES buffer solution, prepared into 40 mM, aliquoted, and cryopreserved in a refrigerator at −20° C. • S2.3. 0.5% Tween 20: 100% Tween 20 was diluted with ultrapure water, and stored in a refrigerator at 4° C. • S2.4. 35% bovine serum albumin: a 35% bovine serum albumin solution is prepared in ultrapure water, aliquoted, and stored in a refrigerator at −20° C. • S2.5. 1M dithiothreitol solution: dithiothreitol is formulated into a 1M solution with ultrapure water, aliquoted, and stored in a refrigerator at −20° C. • S2.6. 0.5 mM Jaktide Peptide substrate solution: it is dissolved in 50 mM HEPES to 0.5 mM, aliquoted, and stored in a refrigerator at −20° C. • S2.7. 0.5 mM IRStide Peptide substrate solution: it is dissolved in 50 mM HEPES to 0.5 mM, aliquoted, and stored in a refrigerator at −20° C. • S2.8. Assay Buffer: 20 mM HEPES buffer, pH 7.4, 10 mM magnesium chloride, 0.01% bovine serum albumin BSA, 0.0005% Tween-20, and a 1 mM dithiothreitol solution. • S2.9. Stop Buffer: 180 mM HEPES buffer, 20 mM ethylenediamine tetraacetic acid (EDTA), and 0.2% Coating Reagent 3. • S2.10. Separation Buffer: 100 mM HEPES buffer, 10 mM EDTA, 0.0005% Tween 20, 0.1% Coating Reagent 3, and 1% dimethyl sulfoxide. 3. Experimental Procedures • S3.1. Preparation of compound plate
(§4) The compound is dissolved in dimethyl sulfoxide to 10 mM, a certain volume is taken and diluted to 0.6 mM, 10 μl of the diluted 0.6 mM solution is taken and added into a 384 microplate or 1:3 serial dilution, with a total of 8 concentration points. • S3.2. Compound layout
(§5) • positive control (HPE1): Ref1, final concentration: 10 μM • positive control (HPE1): Ref2, final concentration: 10 μM • negative control (ZPE): DMSO, with a final concentration of 1.6% • Compound: the highest final concentration at 10 μM, 1:3 serial dilution, with 8 concentration points and in duplicates. 4. Experimental operation steps • S4.1. the experimental plate was added with 250 nl of the compound per well with ECHO, and centrifuged at 1,000 rpm for 1 minute; • S4.2. the precipitate was added with 5 μl of the experimental buffer, and shaken for several seconds to fully dissolve the compound; • S4.3. the solution was added with 5 μl of a 3× substrate solution, as well as 5 μl of a 3× kinase solution, and centrifuged at 800 rpm for 1 minute; • S4.4. The final concentrations of JAK1, JAK2, JAK3 and Tyk2 kinases in the reaction system are 20, 1, 1 and 1 nM, respectively. • S4.5. the reaction system is incubated at room temperature, wherein the incubation time of each kinase is different, and there are differences in incubation time of different batches of kinases. • S4.6. When the reaction reaches 20%-30%, the reaction system is added with 15 μl of the stop buffer to terminate the reaction, and centrifuged at 1,000 rpm for 2 minutes. • S4.7. The precipitate was placed onto a EZ Reader for plate reading. • S4.8. […]

JAK1 = JAK1 (Homo sapiens, UniProt P23458); assay: Inhibition of JAK kinase activity, EZ Reader microfluidic phosphorylation of peptide substrate: JAK1; assay type: biochemical; conditions: JAK1 kinase 20 nM; highest final concentration 10 μM, 1:3 serial dilution, 8 points, duplicates
Sequence of JAK1 (P23458 whole entry): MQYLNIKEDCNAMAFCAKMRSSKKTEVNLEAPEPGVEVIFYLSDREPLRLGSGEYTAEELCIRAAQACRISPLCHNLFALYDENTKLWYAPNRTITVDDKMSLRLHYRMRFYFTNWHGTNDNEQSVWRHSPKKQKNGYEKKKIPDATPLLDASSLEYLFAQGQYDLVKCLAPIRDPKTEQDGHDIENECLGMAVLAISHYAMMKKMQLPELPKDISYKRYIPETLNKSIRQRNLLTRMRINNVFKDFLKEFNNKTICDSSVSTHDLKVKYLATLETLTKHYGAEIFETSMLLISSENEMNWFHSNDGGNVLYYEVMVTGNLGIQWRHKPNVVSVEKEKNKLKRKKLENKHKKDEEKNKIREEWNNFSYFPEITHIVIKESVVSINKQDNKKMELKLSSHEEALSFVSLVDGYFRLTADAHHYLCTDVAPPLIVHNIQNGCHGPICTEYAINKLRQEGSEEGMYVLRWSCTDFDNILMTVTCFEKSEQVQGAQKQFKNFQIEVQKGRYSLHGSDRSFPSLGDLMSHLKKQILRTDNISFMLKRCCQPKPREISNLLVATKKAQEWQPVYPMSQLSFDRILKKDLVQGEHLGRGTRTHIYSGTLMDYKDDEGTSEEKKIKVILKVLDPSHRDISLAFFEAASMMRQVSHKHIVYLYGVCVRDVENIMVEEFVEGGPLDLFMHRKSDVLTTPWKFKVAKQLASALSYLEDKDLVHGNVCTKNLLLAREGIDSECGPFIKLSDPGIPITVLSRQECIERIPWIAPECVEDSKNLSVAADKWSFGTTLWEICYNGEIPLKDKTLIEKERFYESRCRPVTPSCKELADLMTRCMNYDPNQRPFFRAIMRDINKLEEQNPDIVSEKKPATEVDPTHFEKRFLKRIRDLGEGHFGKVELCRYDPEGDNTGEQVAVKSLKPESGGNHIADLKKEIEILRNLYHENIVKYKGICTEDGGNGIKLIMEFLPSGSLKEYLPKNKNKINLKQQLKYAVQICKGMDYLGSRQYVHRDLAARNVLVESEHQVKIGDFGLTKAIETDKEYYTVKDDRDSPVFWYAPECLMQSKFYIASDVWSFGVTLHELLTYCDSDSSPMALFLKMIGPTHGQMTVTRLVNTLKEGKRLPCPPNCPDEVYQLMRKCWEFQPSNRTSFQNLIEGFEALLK
Text: as §1, §2, §3, §4, §5

Sequence of Tyk2 (P29597 whole entry): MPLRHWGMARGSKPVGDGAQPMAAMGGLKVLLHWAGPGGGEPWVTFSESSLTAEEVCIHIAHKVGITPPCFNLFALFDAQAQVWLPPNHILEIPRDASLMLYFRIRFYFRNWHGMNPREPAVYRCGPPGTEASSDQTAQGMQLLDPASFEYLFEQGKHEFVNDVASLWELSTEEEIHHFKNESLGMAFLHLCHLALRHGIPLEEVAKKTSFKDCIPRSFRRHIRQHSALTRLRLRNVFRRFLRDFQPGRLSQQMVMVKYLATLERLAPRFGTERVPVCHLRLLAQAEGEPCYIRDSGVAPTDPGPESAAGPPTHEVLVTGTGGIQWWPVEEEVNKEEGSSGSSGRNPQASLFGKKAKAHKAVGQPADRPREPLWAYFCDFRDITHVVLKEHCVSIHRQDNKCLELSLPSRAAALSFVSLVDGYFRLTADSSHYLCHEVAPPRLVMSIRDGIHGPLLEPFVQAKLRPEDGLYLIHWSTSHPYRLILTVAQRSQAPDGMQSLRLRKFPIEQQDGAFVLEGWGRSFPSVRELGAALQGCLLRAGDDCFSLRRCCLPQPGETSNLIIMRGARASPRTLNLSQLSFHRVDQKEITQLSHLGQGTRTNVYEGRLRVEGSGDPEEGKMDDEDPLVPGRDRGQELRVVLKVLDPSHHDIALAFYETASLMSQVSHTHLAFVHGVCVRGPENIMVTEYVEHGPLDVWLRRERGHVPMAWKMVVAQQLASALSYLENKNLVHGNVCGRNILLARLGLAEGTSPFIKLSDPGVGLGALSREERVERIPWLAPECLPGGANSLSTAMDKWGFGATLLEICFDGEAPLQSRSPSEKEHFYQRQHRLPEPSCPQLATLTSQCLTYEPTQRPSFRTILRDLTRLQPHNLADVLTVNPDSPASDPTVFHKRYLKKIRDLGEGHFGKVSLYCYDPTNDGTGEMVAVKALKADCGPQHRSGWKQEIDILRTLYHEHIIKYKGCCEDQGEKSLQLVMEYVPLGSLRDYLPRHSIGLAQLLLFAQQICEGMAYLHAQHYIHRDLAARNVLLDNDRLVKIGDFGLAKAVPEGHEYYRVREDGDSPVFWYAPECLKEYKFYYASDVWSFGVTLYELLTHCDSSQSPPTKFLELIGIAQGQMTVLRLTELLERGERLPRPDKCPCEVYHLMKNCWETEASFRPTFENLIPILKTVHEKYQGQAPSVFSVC

Row | SMILES | IC50 (Tyk2) [µM] | IC50 (JAK1) [µM]
1 | Cn1cc(Nc2nccc(-c3ccc(C4(CC#N)CN(C(=O)C5CC5)C4)cc3)n2)cn1 [TDM-180880, 2-(1-(cyclopropanecarbonyl)-3-(4-(2-((1-methyl-1H-pyrazol-4-yl)amino)pyrimidin-4-yl)phenyl)azetidin-3-yl)acetonitrile] | 1 to 10 | 1 to 10
2 | Cn1cc(Nc2nccc(-c3ccn(C4(CC#N)CN(S(=O)(=O)C5CCOCC5)C4)n3)n2)cn1 [TDM-180912, 2-(3-(3-(2-((1-methyl-1H-pyrazol-4-yl)amino)pyrimidin-4-yl)-1H-pyrazol-1-yl)-1-((tetrahydro-2H-pyran-4-yl)sulfonyl)azetidin-3-yl)acetonitrile] | 1 to 10 | 0.1 to 1
3 | Cn1cc(Nc2nccc(-c3ccn(C4(CC#N)CN(S(=O)(=O)C5CC5)C4)n3)n2)cn1 [TDM-180915, 2-(1-(cyclopropylsulfonyl)-3-(3-(2-((1-methyl-1H-pyrazol-4-yl)amino)pyrimidin-4-yl)-1H-pyrazol-1-yl)azetidinpyridin-3-yl)acetonitrile] | 0.1 to 1 | 0.1 to 1
4 | CCCS(=O)(=O)N1CC(CC#N)(n2ccc(-c3ccnc(Nc4cnn(C)c4)n3)n2)C1 [TDM-180916, 2-(3-(3-(2-((1-methyl-1H-pyrazol-4-yl)amino)pyrimidin-4-yl)-1H-pyrazol-1-yl)-1-(propylsulfonyl)azacyclobutanpyridin-3-yl)acetonitrile] | 1 to 10 | 0.1 to 1
5 | Cn1cc(Nc2nccc(-c3ccn(C4(CC#N)CN(S(=O)(=O)CC(F)(F)F)C4)n3)n2)cn1 [TDM-180918, 2-(3-(3-(2-((1-methyl-1H-pyrazol-4-yl)amino)pyrimidin-4-yl)-1H-pyrazol-1-yl)-1-((2,2,2-trifluoroethyl)sulfonyl)azetidin-3-yl)acetonitrile] | 1 to 10 | 1 to 10
6 | CCS(=O)(=O)N1CC(CC#N)(n2ccc(-c3ccnc(Nc4cnn(C)c4)n3)n2)C1 [TDM-180922, 2-(1-(ethylsulfonyl)-3-(3-(2-((1-methyl-1H-pyrazol-4-yl)amino)pyrimidin-4-yl)-1H-pyrazol-1-yl)azetidinpyridin-3-yl)acetonitrile] | 0.1 to 1 | 0.1 to 1
7 | Cn1cc(Nc2nccc(-c3cnn(C4(CC#N)CN(S(=O)(=O)CCCCl)C4)c3)n2)cn1 [TDM-180925, 2-(1-((3-chloropropyl)sulfonyl)-3-(4-(2-((1-methyl-1H-pyrazol-4-yl)amino)pyrimidin-4-yl)-1H-pyrazol-1-yl)azetidin-3-yl)acetonitrile] | 0.1 to 1 | 0.1 to 1
8 | COC(=O)CCS(=O)(=O)N1CC(CC#N)(n2cc(-c3ccnc(Nc4cnn(C)c4)n3)cn2)C1 [TDM-180927, Ethyl methyl-3-((3-(cyanomethyl)-3-(4-(2-((1-methyl-1H-pyrazol-4-yl)amino)pyrimidin-4-yl)-1H-pyrazol-1-yl)azetidineazetidin-1-yl)sulfonyl)propionate] | 0.1 to 1 | 0.1 to 1
9 | Cn1cc(Nc2nccc(-c3cnn(C4(CC#N)CN(S(=O)(=O)CC(F)(F)F)C4)c3)n2)cn1 [TDM-180928, 2-(3-(4-(2-((1-methyl-1H-pyrazol-4-yl)amino)pyrimidin-4-yl)-1H-pyrazol-1-yl)-1-((2,2,2-trifluoroethyl)sulfonyl)azetidin-3-yl)acetonitrile] | < 0.1 | 0.1 to 1
10 | COC(=O)CS(=O)(=O)N1CC(CC#N)(n2cc(-c3ccnc(Nc4cnn(C)c4)n3)cn2)C1 [TDM-180930] | 0.1 to 1 | 0.1 to 1
11 | Cn1cc(Nc2nccc(-c3cnn(C4(CC#N)CN(S(=O)(=O)CC5CC5)C4)c3)n2)cn1 [TDM-180931, 2-(1-((cyclopropylmethyl)sulfonyl)-3-(4-(2-((1-methyl-1H-pyrazol-4-yl)amino)pyrimidin-4-yl)-1H-pyrazol-1-yl)azetidin-3-yl)acetonitrile] | 0.1 to 1 | 0.1 to 1
12 | CC(C)S(=O)(=O)N1CC(CC#N)(n2cc(-c3ccnc(Nc4cnn(C)c4)n3)cn2)C1 [TDM-180932, 2-(1-(isopropylsulfonyl)-3-(4-(2-((1-methyl-1H-pyrazol-4-yl)amino)pyrimidin-4-yl)-1H-pyrazol-1-yl)azetidinpyridin-3-yl)acetonitrile] | 0.1 to 1 | 0.1 to 1
13 | Cn1cc(Nc2nccc(-c3ccn(C4(CC#N)CN(C(=O)[C@@H]5CC5(F)F)C4)c3)n2)cn1 [TDM-180937, (S)-2-(1-(2,2-difluorocyclopropane-1-carbonyl)-3-(3-(2-((1-methyl-1H-pyrazol-4-yl)amino)pyrimidin-4-yl)-1H-pyrrol-1-yl)azetidin-3-yl)acetonitrile] | < 0.1 | < 0.1
14 | Cn1cc(Nc2nccc(-c3ccn(C4(CC#N)CN(C(=O)[C@H]5CC5(F)F)C4)c3)n2)cn1 [TDM-180938, (R)-2-(1-(2,2-difluorocyclopropane-1-carbonyl)-3-(3-(2-((1-methyl-1H-pyrazol-4-yl)amino)pyrimidin-4-yl)-1H-pyrrol-1-yl)azetidin-3-yl)acetonitrile] | 0.1 to 1 | 0.1 to 1
